From ChEMBL document CHEMBL4680085 (J Med Chem, 2016)
The source made the active and inactive calls. The calls are words filed in the database; no cut-off is given here.

System: SH-SY5Y
Assay: Neuroprotection in human SH-SY5Y cells assessed as reduction in beta-amyloid peptide (1-42)-induced cell death at 3 uM incubated for 24 hrs by MTT assay
Assay type: functional
Set-up: scale not given: the % may be the effect or the level left
Conditions: not given

| Structure (SMILES) | Activity |
| --- | --- |
| COc1ccc2[nH]cc(CCNC(=O)CN(CCCCCCCCNc3c4c(nc5ccccc35)CCCC4)C(=O)/C=C/c3ccc(O)c(OC)c3)c2c1 | 5.3% |

System: not listed separately
Assay: Antioxidant activity assessed as decrease in peak intensity of hydroxyl radicals at 100 uM by N-oxide self-spin assay relative to control
Assay type: functional
Set-up: scale not given: the % may be the effect or the level left
Conditions: not given

| Structure (SMILES) | Activity |
| --- | --- |
| CC(=O)SCCC(=O)NCCCCCCNc1c2c(nc3cc(Cl)ccc13)CCCC2 | 80.3% |

Biological target: Cholinesterase (Equus caballus) (UniProt P81908)
Sequence (P81908 whole entry): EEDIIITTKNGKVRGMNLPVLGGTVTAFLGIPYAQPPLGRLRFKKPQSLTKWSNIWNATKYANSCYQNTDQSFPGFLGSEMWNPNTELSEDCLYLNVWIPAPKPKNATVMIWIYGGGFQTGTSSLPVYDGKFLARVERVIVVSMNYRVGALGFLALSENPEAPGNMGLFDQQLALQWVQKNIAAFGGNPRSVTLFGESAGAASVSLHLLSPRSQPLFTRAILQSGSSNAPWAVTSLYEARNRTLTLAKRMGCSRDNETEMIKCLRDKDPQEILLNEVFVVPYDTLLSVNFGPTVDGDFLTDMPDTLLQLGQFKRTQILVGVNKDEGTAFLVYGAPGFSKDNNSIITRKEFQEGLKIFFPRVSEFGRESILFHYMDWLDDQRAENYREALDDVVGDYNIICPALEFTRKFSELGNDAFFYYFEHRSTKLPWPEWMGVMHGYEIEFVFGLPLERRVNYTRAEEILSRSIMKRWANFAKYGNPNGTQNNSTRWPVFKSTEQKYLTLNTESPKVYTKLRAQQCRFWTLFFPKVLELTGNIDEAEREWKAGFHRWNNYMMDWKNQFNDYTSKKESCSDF
Assay: Potency index, ratio of IC50 for tacrine to IC50 for test compound for inhibition of horse serum BuChE
Conditions: not given

| Structure (SMILES) | Ratio IC50 |
| --- | --- |
| COc1ccc2[nH]cc(CCNC(=O)CN(CCCCCCCCNc3c4c(nc5ccccc35)CCCC4)C(=O)CCCC[C@@H]3CCSS3)c2c1 | 4 |

Biological target: T1, Acetylcholinesterase (Homo sapiens, UniProt P22303)
T1 sequence (P22303 whole entry): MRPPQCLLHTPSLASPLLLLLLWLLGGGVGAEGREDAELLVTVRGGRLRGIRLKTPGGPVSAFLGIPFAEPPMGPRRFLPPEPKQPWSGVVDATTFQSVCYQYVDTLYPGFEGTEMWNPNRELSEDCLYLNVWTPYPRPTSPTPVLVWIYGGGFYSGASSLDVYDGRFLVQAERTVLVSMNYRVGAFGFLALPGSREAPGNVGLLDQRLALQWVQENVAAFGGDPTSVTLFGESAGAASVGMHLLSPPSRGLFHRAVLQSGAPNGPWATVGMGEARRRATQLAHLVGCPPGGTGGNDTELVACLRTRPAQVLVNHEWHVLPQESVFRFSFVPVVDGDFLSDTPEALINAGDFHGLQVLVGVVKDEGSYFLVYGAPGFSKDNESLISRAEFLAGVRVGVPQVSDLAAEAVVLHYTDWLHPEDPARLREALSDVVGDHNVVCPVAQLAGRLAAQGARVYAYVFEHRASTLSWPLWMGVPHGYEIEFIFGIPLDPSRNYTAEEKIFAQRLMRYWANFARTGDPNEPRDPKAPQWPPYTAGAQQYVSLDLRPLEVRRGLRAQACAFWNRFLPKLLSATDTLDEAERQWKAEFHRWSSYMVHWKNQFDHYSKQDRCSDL
Assay: Inhibition of AChE in human erythrocyte hemo-lyzates pre-incubated for 5 mins before addition of acetylthiocholine iodide substrate by Ellman's method
Assay type: tissue-based
Conditions: not given

| Structure (SMILES) | IC50 |
| --- | --- |
| COc1ccc2[nH]cc(CCNC(=O)CN(CCCCCCCCNc3c4c(nc5ccccc35)CCCC4)C(=O)CCCC[C@@H]3CCSS3)c2c1 | 180 nM |
| COc1ccc2[nH]cc(CCNC(=O)CN(CCCCCCCCNc3c4c(nc5ccccc35)CCCC4)C(=O)/C=C/c3ccc(O)c(OC)c3)c2c1 | 43.7 nM |

Biological target: Cholinesterase (Equus caballus, UniProt P81908)
Sequence (P81908 whole entry): as the sequence (P81908 whole entry) above
Assay: not given
Conditions: not given

| Structure (SMILES) | IC50 |
| --- | --- |
| COc1ccc2[nH]cc(CCNC(=O)CN(CCCCCCCCNc3c4c(nc5ccccc35)CCCC4)C(=O)CCCC[C@@H]3CCSS3)c2c1 | 1.25 nM |
| COc1ccc2[nH]cc(CCNC(=O)CN(CCCCCCCCNc3c4c(nc5ccccc35)CCCC4)C(=O)/C=C/c3ccc(O)c(OC)c3)c2c1 | 2.26 nM |

Biological target: T2, Nuclear factor erythroid 2-related factor 2 (Homo sapiens) (UniProt Q16236)
T2 sequence (whole entry): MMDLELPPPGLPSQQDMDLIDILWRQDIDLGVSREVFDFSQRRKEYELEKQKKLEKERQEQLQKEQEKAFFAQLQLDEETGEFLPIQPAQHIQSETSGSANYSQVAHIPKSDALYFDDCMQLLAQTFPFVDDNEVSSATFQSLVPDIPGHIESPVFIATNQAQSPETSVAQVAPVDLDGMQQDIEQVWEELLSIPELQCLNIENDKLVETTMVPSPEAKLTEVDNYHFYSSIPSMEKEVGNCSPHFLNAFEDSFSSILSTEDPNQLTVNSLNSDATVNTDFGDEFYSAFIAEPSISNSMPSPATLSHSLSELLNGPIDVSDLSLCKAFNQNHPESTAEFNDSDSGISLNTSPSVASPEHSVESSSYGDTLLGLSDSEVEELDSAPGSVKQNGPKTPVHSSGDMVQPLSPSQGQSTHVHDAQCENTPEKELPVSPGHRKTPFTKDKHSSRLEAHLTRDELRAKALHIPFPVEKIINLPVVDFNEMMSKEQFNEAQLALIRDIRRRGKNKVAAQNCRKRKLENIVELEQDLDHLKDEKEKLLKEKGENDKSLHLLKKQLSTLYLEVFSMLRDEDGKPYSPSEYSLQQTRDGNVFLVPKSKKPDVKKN
Assay: Activation of NRF2 in human MCF-7/AREc32 cells assessed as concentration required to double Nrf2 transcriptional pathway by measuring specific luciferase reporter activity incubated for 24 hrs by luciferase reporter gene assay
Assay type: cell-based
Conditions: MCF7, filed as activator

| Structure (SMILES) | CD |
| --- | --- |
| COc1ccc2[nH]cc(CCNC(=O)CN(CCCCCCCCNc3c4c(nc5ccccc35)CCCC4)C(=O)/C=C/c3ccc(O)c(OC)c3)c2c1 | 15.7 µM |

Biological target: T3, Cholinesterase (Homo sapiens, UniProt P06276)
T3 sequence (P06276 whole entry): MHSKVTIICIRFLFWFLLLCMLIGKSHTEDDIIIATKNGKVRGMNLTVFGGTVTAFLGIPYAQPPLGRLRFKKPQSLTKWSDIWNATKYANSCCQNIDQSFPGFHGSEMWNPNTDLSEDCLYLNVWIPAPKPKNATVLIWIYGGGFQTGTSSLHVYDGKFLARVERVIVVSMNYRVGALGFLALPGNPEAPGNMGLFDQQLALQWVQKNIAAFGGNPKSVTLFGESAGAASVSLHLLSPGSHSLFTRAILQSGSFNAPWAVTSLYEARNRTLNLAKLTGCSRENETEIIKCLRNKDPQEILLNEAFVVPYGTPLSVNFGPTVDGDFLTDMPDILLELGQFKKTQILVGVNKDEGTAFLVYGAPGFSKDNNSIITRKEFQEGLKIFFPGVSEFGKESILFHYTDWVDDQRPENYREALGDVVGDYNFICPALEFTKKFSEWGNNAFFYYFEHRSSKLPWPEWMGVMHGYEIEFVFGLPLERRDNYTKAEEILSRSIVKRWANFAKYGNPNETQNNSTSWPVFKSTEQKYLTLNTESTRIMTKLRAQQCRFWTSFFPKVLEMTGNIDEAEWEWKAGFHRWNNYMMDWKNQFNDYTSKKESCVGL
Assay: Potency index, ratio of IC50 for tacrine to IC50 for test compound for inhibition of BuChE in human erythrocyte hemo-lyzates pre-incubated for 5 mins before addition of butyrylthiocholine iodide substrate by Ellman's method
Assay type: tissue-based
Conditions: not given

| Structure (SMILES) | Ratio IC50 |
| --- | --- |
| COc1ccc2[nH]cc(CCNC(=O)CN(CCCCCCCCNc3c4c(nc5ccccc35)CCCC4)C(=O)/C=C/c3ccc(O)c(OC)c3)c2c1 | 6.91 |

System: not listed separately
Assay: in vitro
Conditions: human, HepG2 cells
Description: Toxicity in human HepG2 cells assessed as cell viability at 1000 uM by MTT assay relative to control

| Structure (SMILES) | viability at 1000 µM |
| --- | --- |
| COc1ccc2[nH]cc(CCNC(=O)CN(CCCCCCCCNc3c4c(nc5ccccc35)CCCC4)C(=O)CCCC[C@@H]3CCSS3)c2c1 | 48.8% |
| COc1ccc2[nH]cc(CCNC(=O)CN(CCCCCCCCNc3c4c(nc5ccccc35)CCCC4)C(=O)/C=C/c3ccc(O)c(OC)c3)c2c1 | 49.7% |

Biological target: T3, Cholinesterase
Assay: Competitive type inhibition of BuChE in human erythrocyte hemo-lyzates using […] substrate by Ellman's method based Lineweaver-Burk plot analysis
Assay type: tissue-based
Conditions: not given

| Structure (SMILES) | inhibition |
| --- | --- |
| COc1ccc2[nH]cc(CCNC(=O)CN(CCCCCCCCNc3c4c(nc5ccccc35)CCCC4)C(=O)/C=C/c3ccc(O)c(OC)c3)c2c1 | Active |

System: SH-SY5Y
Assay: Neuroprotection in human SH-SY5Y cells assessed as reduction in Rotenone/Oligomycin A -induced cell death at 1 uM incubated for 24 hrs by MTT assay
Assay type: functional
Set-up: scale not given: the % may be the effect or the level left
Conditions: not given

| Structure (SMILES) | Activity |
| --- | --- |
| COc1ccc2[nH]cc(CCNC(=O)CN(CCCCCCCCNc3c4c(nc5ccccc35)CCCC4)C(=O)/C=C/c3ccc(O)c(OC)c3)c2c1 | 44.8% |

System: SH-SY5Y
Assay: Neuroprotection in human SH-SY5Y cells assessed as reduction in Rotenone/Oligomycin A -induced cell death at 3 uM incubated for 24 hrs by MTT assay
Assay type: functional
Set-up: scale not given: the % may be the effect or the level left
Conditions: not given

| Structure (SMILES) | Activity |
| --- | --- |
| COc1ccc2[nH]cc(CCNC(=O)CN(CCCCCCCCNc3c4c(nc5ccccc35)CCCC4)C(=O)/C=C/c3ccc(O)c(OC)c3)c2c1 | 59.4% |

System: not listed separately
Assay: in vitro
Conditions: human, HepG2 cells
Remark: another data set of the same source
Description: Toxicity in human HepG2 cells assessed as cell viability at 300 uM by MTT assay relative to control

| Structure (SMILES) | viability at 300 µM |
| --- | --- |
| COc1ccc2[nH]cc(CCNC(=O)CN(CCCCCCCCNc3c4c(nc5ccccc35)CCCC4)C(=O)CCCC[C@@H]3CCSS3)c2c1 | 58.9% |
| COc1ccc2[nH]cc(CCNC(=O)CN(CCCCCCCCNc3c4c(nc5ccccc35)CCCC4)C(=O)/C=C/c3ccc(O)c(OC)c3)c2c1 | 51.3% |

Biological target: Acetylcholinesterase (Electrophorus electricus) (UniProt O42275)
Sequence (O42275 24-633 limits assumed): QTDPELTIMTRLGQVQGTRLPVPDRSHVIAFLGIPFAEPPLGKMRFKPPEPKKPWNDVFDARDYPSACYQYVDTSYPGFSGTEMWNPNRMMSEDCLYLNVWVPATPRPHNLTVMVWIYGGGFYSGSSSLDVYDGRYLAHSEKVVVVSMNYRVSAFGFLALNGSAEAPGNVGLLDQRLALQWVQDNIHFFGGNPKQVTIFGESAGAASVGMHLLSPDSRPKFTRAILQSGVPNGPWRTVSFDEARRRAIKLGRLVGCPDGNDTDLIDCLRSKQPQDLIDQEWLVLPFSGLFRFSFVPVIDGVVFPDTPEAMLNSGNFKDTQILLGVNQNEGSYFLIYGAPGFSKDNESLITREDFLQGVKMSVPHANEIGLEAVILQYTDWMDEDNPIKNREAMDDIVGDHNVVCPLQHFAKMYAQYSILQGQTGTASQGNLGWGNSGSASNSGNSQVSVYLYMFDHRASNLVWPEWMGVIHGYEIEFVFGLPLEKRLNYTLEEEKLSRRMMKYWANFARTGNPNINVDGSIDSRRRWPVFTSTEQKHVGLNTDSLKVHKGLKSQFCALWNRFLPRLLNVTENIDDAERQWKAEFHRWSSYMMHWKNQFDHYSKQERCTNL
Assay: Potency index, ratio of IC50 for tacrine to IC50 for test compound for inhibition of Electrophorus electricus AChE
Conditions: not given

| Structure (SMILES) | Ratio IC50 |
| --- | --- |
| COc1ccc2[nH]cc(CCNC(=O)CN(CCCCCCCCNc3c4c(nc5ccccc35)CCCC4)C(=O)CCCC[C@@H]3CCSS3)c2c1 | 12.2 |

System: SH-SY5Y
Assay: Neuroprotection in human SH-SY5Y cells assessed as reduction in beta-amyloid peptide (1-42)-induced cell death at 1 uM incubated for 24 hrs by MTT assay
Assay type: functional
Set-up: scale not given: the % may be the effect or the level left
Conditions: not given

| Structure (SMILES) | Activity |
| --- | --- |
| COc1ccc2[nH]cc(CCNC(=O)CN(CCCCCCCCNc3c4c(nc5ccccc35)CCCC4)C(=O)/C=C/c3ccc(O)c(OC)c3)c2c1 | 34.5% |

System: SH-SY5Y
Assay: Neuroprotection in human SH-SY5Y cells assessed as reduction in H2O2-induced cell death at 3 uM incubated for 24 hrs by MTT assay
Assay type: functional
Set-up: scale not given: the % may be the effect or the level left
Conditions: not given

| Structure (SMILES) | Activity |
| --- | --- |
| COc1ccc2[nH]cc(CCNC(=O)CN(CCCCCCCCNc3c4c(nc5ccccc35)CCCC4)C(=O)/C=C/c3ccc(O)c(OC)c3)c2c1 | 51.3% |

Biological target: T1, Acetylcholinesterase
Assay: Potency index, ratio of IC50 for tacrine to IC50 for test compound for inhibition of AChE in human erythrocyte hemo-lyzates pre-incubated for 5 mins before addition of acetylthiocholine iodide substrate by Ellman's method
Assay type: tissue-based
Conditions: not given

| Structure (SMILES) | Ratio IC50 |
| --- | --- |
| COc1ccc2[nH]cc(CCNC(=O)CN(CCCCCCCCNc3c4c(nc5ccccc35)CCCC4)C(=O)/C=C/c3ccc(O)c(OC)c3)c2c1 | 6.91 |

System: not listed separately
Assay: Effective permeability at 100 uM after 3 to 6 hrs by PAMPA assay
Assay type: ADME
Conditions: time 3-6 hrs, read-out: Peff

| Structure (SMILES) | Papp at 100 µM |
| --- | --- |
| COc1ccc2[nH]cc(CCNC(=O)CN(CCCCCCCCNc3c4c(nc5ccccc35)CCCC4)C(=O)CCCC[C@@H]3CCSS3)c2c1 | 6.9 ×10⁻⁶ cm/s |
| COc1ccc2[nH]cc(CCNC(=O)CN(CCCCCCCCNc3c4c(nc5ccccc35)CCCC4)C(=O)/C=C/c3ccc(O)c(OC)c3)c2c1 | 5.8 ×10⁻⁶ cm/s |

Biological target: T3, Cholinesterase
Assay: Inhibition of BuChE in human erythrocyte hemo-lyzates pre-incubated for 5 mins before addition of butyrylthiocholine iodide substrate by Ellman's method
Assay type: tissue-based
Conditions: not given

| Structure (SMILES) | IC50 |
| --- | --- |
| COc1ccc2[nH]cc(CCNC(=O)CN(CCCCCCCCNc3c4c(nc5ccccc35)CCCC4)C(=O)CCCC[C@@H]3CCSS3)c2c1 | 211 nM |
| COc1ccc2[nH]cc(CCNC(=O)CN(CCCCCCCCNc3c4c(nc5ccccc35)CCCC4)C(=O)/C=C/c3ccc(O)c(OC)c3)c2c1 | 23.5 nM |

System: SH-SY5Y
Assay: Neuroprotection in human SH-SY5Y cells assessed as reduction in beta-amyloid peptide (1-40)-induced cell death at 3 uM incubated for 24 hrs by MTT assay
Assay type: functional
Set-up: scale not given: the % may be the effect or the level left
Conditions: not given

| Structure (SMILES) | Activity |
| --- | --- |
| COc1ccc2[nH]cc(CCNC(=O)CN(CCCCCCCCNc3c4c(nc5ccccc35)CCCC4)C(=O)/C=C/c3ccc(O)c(OC)c3)c2c1 | 66.3% |

System: SH-SY5Y
Assay: Neuroprotection in human SH-SY5Y cells assessed as reduction in H2O2-induced cell death at 1 uM incubated for 24 hrs by MTT assay
Assay type: functional
Set-up: scale not given: the % may be the effect or the level left
Conditions: not given

| Structure (SMILES) | Activity |
| --- | --- |
| COc1ccc2[nH]cc(CCNC(=O)CN(CCCCCCCCNc3c4c(nc5ccccc35)CCCC4)C(=O)/C=C/c3ccc(O)c(OC)c3)c2c1 | 35.4% |

System: SH-SY5Y
Assay: Neuroprotection in human SH-SY5Y cells assessed as reduction in beta-amyloid peptide (1-40)-induced cell death at 1 uM incubated for 24 hrs by MTT assay
Assay type: functional
Set-up: scale not given: the % may be the effect or the level left
Conditions: not given

| Structure (SMILES) | Activity |
| --- | --- |
| COc1ccc2[nH]cc(CCNC(=O)CN(CCCCCCCCNc3c4c(nc5ccccc35)CCCC4)C(=O)/C=C/c3ccc(O)c(OC)c3)c2c1 | 21.5% |

Biological target: T1, Acetylcholinesterase
Assay: Mixed type inhibition of AChE in human erythrocyte hemo-lyzates using acetylthiocholine iodide substrate by Ellman's method based Lineweaver-Burk plot analysis
Assay type: tissue-based
Conditions: not given

| Structure (SMILES) | inhibition |
| --- | --- |
| COc1ccc2[nH]cc(CCNC(=O)CN(CCCCCCCCNc3c4c(nc5ccccc35)CCCC4)C(=O)/C=C/c3ccc(O)c(OC)c3)c2c1 | Active |

System: not listed separately
Assay: in vitro
Conditions: human, HepG2 cells
Remark: another data set of the same source
Description: Toxicity in human HepG2 cells assessed as cell viability at 100 uM by MTT assay relative to control

| Structure (SMILES) | viability at 100 µM |
| --- | --- |
| COc1ccc2[nH]cc(CCNC(=O)CN(CCCCCCCCNc3c4c(nc5ccccc35)CCCC4)C(=O)CCCC[C@@H]3CCSS3)c2c1 | 86.2% |
| COc1ccc2[nH]cc(CCNC(=O)CN(CCCCCCCCNc3c4c(nc5ccccc35)CCCC4)C(=O)/C=C/c3ccc(O)c(OC)c3)c2c1 | 53.3% |

Biological target: Acetylcholinesterase (Electrophorus electricus, UniProt O42275)
Sequence (O42275 whole entry): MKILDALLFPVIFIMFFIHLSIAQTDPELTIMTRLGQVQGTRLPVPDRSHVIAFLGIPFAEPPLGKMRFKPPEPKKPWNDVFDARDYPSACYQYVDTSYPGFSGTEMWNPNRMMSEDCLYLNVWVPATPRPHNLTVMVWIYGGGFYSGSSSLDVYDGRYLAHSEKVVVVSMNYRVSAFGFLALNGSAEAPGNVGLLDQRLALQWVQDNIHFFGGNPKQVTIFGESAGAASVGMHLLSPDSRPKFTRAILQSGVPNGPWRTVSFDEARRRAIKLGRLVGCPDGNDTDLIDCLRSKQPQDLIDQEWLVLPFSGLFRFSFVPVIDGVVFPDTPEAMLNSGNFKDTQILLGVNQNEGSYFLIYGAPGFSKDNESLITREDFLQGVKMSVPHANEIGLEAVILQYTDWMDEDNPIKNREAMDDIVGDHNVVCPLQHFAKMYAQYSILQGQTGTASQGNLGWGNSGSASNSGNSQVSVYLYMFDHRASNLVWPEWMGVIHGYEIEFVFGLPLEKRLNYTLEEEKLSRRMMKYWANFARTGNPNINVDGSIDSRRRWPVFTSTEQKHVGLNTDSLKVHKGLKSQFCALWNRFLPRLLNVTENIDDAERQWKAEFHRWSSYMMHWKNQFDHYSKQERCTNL
Assay: Inhibition of Electrophorus electricus AChE pre-incubated for 10 mins before addition of acetylthiocholine iodide substrate and further incubated for 15 mins by Ellman's method
Conditions: not given

| Structure (SMILES) | IC50 |
| --- | --- |
| COc1ccc2[nH]cc(CCNC(=O)CN(CCCCCCCCNc3c4c(nc5ccccc35)CCCC4)C(=O)CCCC[C@@H]3CCSS3)c2c1 | 3.62 nM |
| COc1ccc2[nH]cc(CCNC(=O)CN(CCCCCCCCNc3c4c(nc5ccccc35)CCCC4)C(=O)/C=C/c3ccc(O)c(OC)c3)c2c1 | 13.9 nM |
